From publication PMC7306898, “Concentration-Dependent Activity of Hydromethylthionine on Clinical Decline and Brain Atrophy in a Randomized Controlled Trial in Behavioral Variant Frontotemporal Dementia” (Journal of Alzheimer's Disease, 2020)

How the values were obtained:
bvFTD patients [1] = assay: Functional Activities Questionnaire (FAQ), 52-week Phase III trial; format: in vivo, human
Description: The study was designed as a 52-week Phase III, randomized, controlled, double-blind, parallel-group trial conducted between May 2013 and February 2016 at 70 sites in Canada, United States, Australia, Asia, and Europe. Eligible patients had to be younger than 80 years of age with a diagnosis of bvFTD according to criteria revised by the International bvFTD Criteria Consortium [[1, 50]], with Mini-Mental Status Examination (MMSE) score greater than or equal to 20 at screening. In order to limit inclusion of bvFTD phenocopy cases, there was an additional requirement that patients had to meet the criterion of having definite brain atrophy in frontal and/or temporal lobes scoring 2 or more on a scale previously developed by Kipps et al.. Concomitant use of acetylcholinesterase inhibitors (AChEIs) or memantine (or both) was permitted provided this was at a stable dose for at least 18 weeks before randomization to minimize any potential early symptomatic effects of these treatments. Concomitant use of antidepressant, antipsychotic (except clozapine or olanzapine), and sedative medications was also permitted at stable doses where clinically feasible. Each patient had one or more study partners participate with them in the trial as informants. […] A detailed list of inclusion and exclusion criteria is in the protocol provided in the Supplementary Material. […]
The two doses were provided in identical blister packages as visually identical oral tablets to be taken for up to 52 weeks. […] Other outcomes included: Modified Alzheimer’s Disease Cooperative Study – Clinical Global Impression of Change (Modified-CGIC) determined by a third independent rater; Frontotemporal Dementia Rating Scale (FRS); MMSE (from MMSE items incorporated into ACE-R); Addenbrookes Cognitive Examination – III (a revised version of ACE-R which excludes MMSE items subject to copyright restrictions); change in brain volume measured by MRI in frontal and temporal lobes (FTV) and lateral ventricles (LVV); and the effect of hydromethylthionine in patients with known genetic mutations associated with bvFTD. […]

[2] = design: method as in PMID 31658058; details: cited from earlier work
bvFTD patients [3] = assay: Safety: treatment emergent adverse events, Safety Population; details: for deaths: none judged related to treatment
Description: Patients were monitored throughout the study for adverse events, including use of clinical laboratory tests (including measurement of methaemoglobin by pulse CO-oximetry), physical and neurological examinations, and 12-lead electrocardiograms (ECG) at all clinic visits (screening, baseline, and weeks 2, 16, 32, 52, and 56). The Unified Parkinson’s Disease Rating Scale Part III (UPDRS) [58] was included as a motor safety outcome measure requested by a regulatory agency, as was the Columbia-Suicide Severity Rating Scale (C-SSRS) [59], which were assessed at all visits. Patients were also systematically monitored for potential serotonin syndrome using a rating scale derived from four published diagnostic criteria [60], because of a theoretical potential for serotonin syndrome [61]. By protocol, amyloid related imaging abnormalities (ARIA), serotonin toxicity, and suicidality were to be reported as serious adverse events for expedited reporting.

[4] = 8 mg/day (n = 110), Safety Population
[5] = 200 mg/day (n = 108), Safety Population

CN(C)c1ccc2c(c1)Sc1cc(N(C)C)ccc1N2 [hydromethylthionine, leuco-methylthioninium bis(hydromethanesulphonate)]
FAQ: Decline±SEM for LMTM 8 mg/day group (bvFTD patients [1]; 8 mg/day (n = 110), modeled change from baseline at 52 weeks, MITT): 5.51±0.55 | reduction in decline on the FAQ scale (bvFTD patients [1]; 8 mg/day, plasma levels above vs below […] threshold): 46% | FAQ: Difference±SEM from LMTM 8 mg/day for 200 mg/day (bvFTD patients [1]; 200 mg/day (n = 104) vs 8 mg/day, 52 weeks, MITT): –0.39±0.84 | brain:plasma ratio compared to MTC [2]: ≥ 60 fold | patients with TEAEs judged by the Investigator to be related to study drug (bvFTD patients [3]; 8 mg/day): 30% | patients with a TEAE resulting in a dose reduction, interruption, or withdrawal of study drug (bvFTD patients [3]; 8 mg/day): 15 [14%] | patients with at least one severe TEAE (bvFTD patients [3]; 8 mg/day): 13 (12%) | subjects with myoclonus reported as an AE (bvFTD patients [3]; 8 mg/day): 2 | withdrawal rate over 12 months (bvFTD patients [3]; 8 mg/day): 15% | Number (%) of Patients Reporting at Least One Adverse Event (TEAE) (bvFTD patients [3]; [4]): 88 (80%) | Number (%) of patients with TEAE: Agitation (bvFTD patients [3]; [4]): 9 (8.2%) | Number (%) of patients with TEAE: Blood folate decreased (bvFTD patients [3]; [4]): 6 (5.5%) | Number (%) of patients with TEAE: Cough (bvFTD patients [3]; [4]): 7 (6.4%) | Number (%) of patients with TEAE: Diarrhea (bvFTD patients [3]; [4]): 9 (8.2%) | Number (%) of patients with TEAE: Dysuria (bvFTD patients [3]; [4]): 0 | Number (%) of patients with TEAE: Fall (bvFTD patients [3]; [4]): 10 (9.1%) | Number (%) of patients with TEAE: Folate deficiency (bvFTD patients [3]; [4]): 2 (1.8%) | Number (%) of patients with TEAE: Gastrointestinal disorders (bvFTD patients [3]; [4]): 28 (25.5%) | Number (%) of patients with TEAE: Headache (bvFTD patients [3]; [4]): 8 (7.3%) | Number (%) of patients with TEAE: Infections and infestations (bvFTD patients [3]; [4]): 38 (34.5%) | Number (%) of patients with TEAE: Injury, poisoning and procedural complications (bvFTD patients [3]; [4]): 18 (16.4%) | Number (%) of patients with TEAE: Insomnia (bvFTD patients [3]; [4]): 3 (2.7%) | Number (%) of patients with TEAE: Investigations (bvFTD patients [3]; [4]): 17 (15.5%) | Number (%) of patients with TEAE: Metabolism and nutrition disorders (bvFTD patients [3]; [4]): 12 (10.9%) | Number (%) of patients with TEAE: Nasopharyngitis (bvFTD patients [3]; [4]): 8 (7.3%) | Number (%) of patients with TEAE: Pollakiuria (bvFTD patients [3]; [4]): 3 (2.7%) | Number (%) of patients with TEAE: Psychiatric disorders (bvFTD patients [3]; [4]): 29 (26.4%) | Number (%) of patients with TEAE: Renal and urinary disorders (bvFTD patients [3]; [4]): 25 (22.7%) | Number (%) of patients with TEAE: Respiratory, thoracic and mediastinal disorders (bvFTD patients [3]; [4]): 12 (10.9%) | Number (%) of patients with TEAE: Urinary incontinence (bvFTD patients [3]; [4]): 13 (11.8%) | Number (%) of patients with TEAE: Urinary tract infection (bvFTD patients [3]; [4]): 13 (11.8%) | Number (%) of patients with TEAE: Vomiting (bvFTD patients [3]; [4]): 5 (4.5%) | Number (%) of patients with TEAE: White blood cells urine positive (bvFTD patients [3]; [4]): 1 (0.9%) | Number (%) of Patients Reporting at Least One Adverse Event (TEAE) (bvFTD patients [3]; 8 mg/day (n = 110), Safety Population, listed as Hydromethylthionine): 88 (80.0%) | frequency of renal and urinary disorders (bvFTD patients [3]; 8 mg/day, above-threshold plasma levels): 26% | frequency of renal and urinary disorders (bvFTD patients [3]; 8 mg/day, below-threshold plasma levels): 18% | deaths (bvFTD patients [3]; 8 mg/day): 1 | patients with TEAEs judged by the Investigator to be related to study drug (bvFTD patients [3]; 200 mg/day): 56% | patients with a TEAE resulting in a dose reduction, interruption, or withdrawal of study drug (bvFTD patients [3]; 200 mg/day): 35 [32%] | patients with at least one severe TEAE (bvFTD patients [3]; 200 mg/day): 17 (16%) | subjects with myoclonus reported as an AE (bvFTD patients [3]; 200 mg/day): 1 | withdrawal rate over 12 months (bvFTD patients [3]; 200 mg/day): 38% | Number (%) of Patients Reporting at Least One Adverse Event (TEAE) (bvFTD patients [3]; [5]): 103 (95.4%) | Number (%) of patients with TEAE: Agitation (bvFTD patients [3]; [5]): 9 (8.3%) | Number (%) of patients with TEAE: Blood folate decreased (bvFTD patients [3]; [5]): 9 (8.3%) | Number (%) of patients with TEAE: Cough (bvFTD patients [3]; [5]): 2 (1.9%) | Number (%) of patients with TEAE: Diarrhea (bvFTD patients [3]; [5]): 24 (22.2%) | Number (%) of patients with TEAE: Dysuria (bvFTD patients [3]; [5]): 6 (5.6%) | Number (%) of patients with TEAE: Fall (bvFTD patients [3]; [5]): 13 (12.0%) | Number (%) of patients with TEAE: Folate deficiency (bvFTD patients [3]; [5]): 6 (5.6%) | Number (%) of patients with TEAE: Gastrointestinal disorders (bvFTD patients [3]; [5]): 42 (38.9%) | Number (%) of patients with TEAE: Headache (bvFTD patients [3]; [5]): 5 (4.6%) | Number (%) of patients with TEAE: Infections and infestations (bvFTD patients [3]; [5]): 34 (31.5%) | Number (%) of patients with TEAE: Injury, poisoning and procedural complications (bvFTD patients [3]; [5]): 16 (14.8%) | Number (%) of patients with TEAE: Insomnia (bvFTD patients [3]; [5]): 7 (6.5%) | Number (%) of patients with TEAE: Investigations (bvFTD patients [3]; [5]): 34 (31.5%) | Number (%) of patients with TEAE: Metabolism and nutrition disorders (bvFTD patients [3]; [5]): 14 (13.0%) | Number (%) of patients with TEAE: Nasopharyngitis (bvFTD patients [3]; [5]): 7 (6.5%) | Number (%) of patients with TEAE: Nervous system disorders (bvFTD patients [3]; [5]): 27 (25.0%) | Number (%) of patients with TEAE: Pollakiuria (bvFTD patients [3]; [5]): 10 (9.3%) | Number (%) of patients with TEAE: Psychiatric disorders (bvFTD patients [3]; [5]): 31 (28.7%) | Number (%) of patients with TEAE: Renal and urinary disorders (bvFTD patients [3]; [5]): 28 (25.9%) | Number (%) of patients with TEAE: Respiratory, thoracic and mediastinal disorders (bvFTD patients [3]; [5]): 8 (7.4%) | Number (%) of patients with TEAE: Urinary incontinence (bvFTD patients [3]; [5]): 9 (8.3%) | Number (%) of patients with TEAE: Urinary tract infection (bvFTD patients [3]; [5]): 14 (13.0%) | Number (%) of patients with TEAE: Vomiting (bvFTD patients [3]; [5]): 9 (8.3%) | Number (%) of patients with TEAE: White blood cells urine positive (bvFTD patients [3]; [5]): 6 (5.6%) | deaths (bvFTD patients [3]; 200 mg/day): 3 | serotonin syndrome reported as an AE (bvFTD patients [3]; both doses, 20-item structured examination): No subject had serotonin syndrome reported as an AE
